From paper PMC10223062, “Discovery of Novel Thiophene/Hydrazones: In Vitro and In Silico Studies against Pancreatic Cancer” (Pharmaceutics, 2023)
Counter-ions that a name gives are not always drawn.

Columns and labels:
[1] = test system: MIA PaCa-2 cell line; test: 2D anticancer activity, MTT assay; format: cell-based; conditions: Homo sapiens, 72 h exposure, read-out: IC50 in 2D cultured MIA PaCa-2 cell line
Description: (§1) For the preliminary assessment of anticancer activity in a 2D cell culture system, an MIA PaCa-2 human pancreas epithelial carcinoma (CRL-1420™) cell line (ATCC, Manassas, VA, USA) was cultured in Dulbecco’s Modified Eagle Medium with 10% fetal bovine serum (FBS, v/v) (Gibco, Billings, MT, USA) and supplemented with 1% antibiotics (10,000 μg/mL streptomycin and 10,000 U/mL penicillin) (Gibco, Billings, MT, USA) at 37 °C in a humidified 5% CO2 atmosphere. For the in vitro modeling of the tumor microenvironment, compounds were also tested in a 3D spheroid test system. For this purpose, the MIA PaCa-2 human pancreas epithelial carcinoma (CRL-1420™) cell line and human dermal fibroblast cell line HDF (PCS-201-012) cells were used.
For the assessment of anticancer activity of the compounds, the MIA PaCa-2 cells were plated in 48-well microplates at 1.5 × 10^5 cells/mL and incubated for 24 h at 37 °C in 5% CO2 in accordance with a previously reported method. Following the day, the cells were treated with compounds in various concentrations between 0.1–100 µM dissolved in dimethyl sulfoxide (DMSO) (Sigma Aldrich, St. Louis, MO, USA). Following the 72 h of incubation, culture mediums were discarded and 0.5 mg/mL 3-(4,5-Dimethylthiazol-2-yl)-2,5-Diphenyltetrazolium Bromide (MTT) (Sigma Aldrich, St. Louis, MO, USA) was added to each well for an additional 2 h at 37 °C. After 2 h incubation, the medium was discarded and 100 µL of isopropanol (Sigma Aldrich, St. Louis, MO, USA) was added to the wells to dissolve formazan crystals. The optical density was measured at 570 nm wavelength using a microplate reader (Thermo Fisher Scientific Multiskan, Finland). Doxorubicin hydrochloride (DOX) (European Pharmacopoeia standard, Sigma) was used as internal positive control, and 0.5% DMSO (v/v) was used as negative control. The percentage of cell viability was determined by using the following equation:(1) Viability %=(Absorbancecompound)/(Absorbancenegative control)×100%

[2] = target: T1, 5-LOX (Homo sapiens, UniProt P09917); test: Fluorometric 5-LOX inhibitor screening kit; format: biochemical; conditions: for 5-LOX Percent of İnhibition: at 10 µM
T1 construct: purchased MyBioSource
T1 sequence (P09917 1-674): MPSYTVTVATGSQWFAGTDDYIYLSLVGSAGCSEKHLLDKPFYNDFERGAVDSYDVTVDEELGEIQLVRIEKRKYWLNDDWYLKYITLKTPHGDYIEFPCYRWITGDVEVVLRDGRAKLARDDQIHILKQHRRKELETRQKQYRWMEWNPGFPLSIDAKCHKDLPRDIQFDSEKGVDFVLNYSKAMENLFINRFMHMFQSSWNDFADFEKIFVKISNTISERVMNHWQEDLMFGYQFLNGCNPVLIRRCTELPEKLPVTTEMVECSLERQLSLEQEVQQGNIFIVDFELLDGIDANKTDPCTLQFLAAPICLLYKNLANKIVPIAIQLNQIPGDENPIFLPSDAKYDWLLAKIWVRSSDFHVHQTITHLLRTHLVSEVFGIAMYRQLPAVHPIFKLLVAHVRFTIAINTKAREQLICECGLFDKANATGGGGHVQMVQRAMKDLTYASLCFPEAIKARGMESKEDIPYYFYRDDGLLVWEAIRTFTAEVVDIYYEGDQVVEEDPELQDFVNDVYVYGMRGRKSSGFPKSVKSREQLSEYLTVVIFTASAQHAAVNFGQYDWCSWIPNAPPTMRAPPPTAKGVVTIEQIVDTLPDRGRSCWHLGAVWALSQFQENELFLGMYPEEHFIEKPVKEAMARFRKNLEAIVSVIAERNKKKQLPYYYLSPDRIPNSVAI
Description: COX-1 and COX-2 inhibitory activities were tested using fluorometric COX-1 and COX-2 inhibitor screening kits (Abcam, United Kingdom), and the 5-LOX inhibitory activity was tested using a fluorometric 5-LOX inhibitor screening kit (MyBioSource, USA). These assays are based on the fluorometric detection of Prostaglandin G2 (a product generated by the COX enzyme) or on the fluorometric detection of the intermediate generated by the 5-LOX enzyme. The experiments were conducted in accordance with the manufacturers’ instructions.
For the determination of 5-LOX inhibitory activity, tested compounds were dissolved in DMSO (5 mM stock solution) and then diluted with the same solvent to obtain the test solutions. Test solutions were added to wells in an amount of 2 µL in the final 100 µL reaction volume. […] EC, SC, IC, and all test solutions were analyzed in triplicate.

[3] = test system: MIA PaCa-2 tumor spheroids; test: 3D spheroid formation/growth assay; format: cell-based, human; parameters: Spheroid Diameter Day 0 / Spheroid Diameter Day 9: unit not given here; conditions: for Spheroid Diameter Day 0: Day 0 (baseline)
Description: as §1
For 3D spheroid formation, the MIA PaCa-2 cells (PC cell line) and HDF cells were used according to the 3D Bioprinting method. To better simulate the tumor microenvironment, PC cells were mixed (1:1) with human fibroblasts. Briefly, the MIA PaCa-2 cells and human fibroblasts at 70–80% confluency were added to a 6-well plate and incubated with biocompatible NanoShuttle TM-PL (Bioprinting Kit, Greiner Bio-One, Germany) overnight at 37 °C in a humidified 5% CO2 atmosphere. After the nanoparticles were taken up by the cells, they were resuspended and seeded into an ultra-low attachment 96-well plate at a volume of 100 μL (2000 PC cells and 2000 human fibroblasts per well) volume. The plate was placed on a magnetic drive and incubated at 37 °C in a humidified 5% CO2 atmosphere until spheroids were formed. After two days of incubation, the spheroids were photographed using light microscopy (Carl Zeiss Primo Vert, Germany). Fresh medium containing 0.1, 1, 10, and 100 µM of tested compound was added to the wells. Photos were taken every 72 h, and the medium was replaced every 72 h. The effect of the tested compounds in 3D PC cell cultures was examined by measuring the size change of spheroids using ImageJ software (ImageJ 2.0 software, USA).

[4] = target: T2, COX-2 (Homo sapiens, UniProt P35354); test: Fluorometric COX-2 inhibitor screening kit; conditions: at 10 µM
T2 sequence (P35354 18-604): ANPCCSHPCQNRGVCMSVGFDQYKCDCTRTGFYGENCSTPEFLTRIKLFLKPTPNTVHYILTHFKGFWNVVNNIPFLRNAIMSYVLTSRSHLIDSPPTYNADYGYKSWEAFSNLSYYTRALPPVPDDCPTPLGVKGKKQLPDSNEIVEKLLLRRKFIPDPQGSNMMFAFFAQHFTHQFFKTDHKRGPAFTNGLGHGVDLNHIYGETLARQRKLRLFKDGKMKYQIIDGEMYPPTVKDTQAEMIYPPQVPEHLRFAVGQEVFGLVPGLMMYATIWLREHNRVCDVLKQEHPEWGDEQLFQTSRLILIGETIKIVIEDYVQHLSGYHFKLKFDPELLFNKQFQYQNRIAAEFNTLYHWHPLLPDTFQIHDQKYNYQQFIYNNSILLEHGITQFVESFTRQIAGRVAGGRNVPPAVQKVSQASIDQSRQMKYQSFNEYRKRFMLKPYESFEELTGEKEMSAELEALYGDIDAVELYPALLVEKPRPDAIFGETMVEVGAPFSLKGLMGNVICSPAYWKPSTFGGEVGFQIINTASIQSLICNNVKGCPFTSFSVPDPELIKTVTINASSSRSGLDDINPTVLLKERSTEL
Description: For the determination of COX-1 and COX-2 inhibitory activity, the tested compounds were dissolved in dimethyl sulfoxide (DMSO, 5 mM stock solution) and then diluted with the same solvent to obtain the test solutions. The test solutions were further diluted 5× with COX Assay Buffer (2 µL of test solution: 8 µL COX Assay Buffer). […] Solvent Control (SC) was prepared by adding 2 µL DMSO and 8 µL COX Assay Buffer, while Sample (S) and Enzyme Control (EC) were prepared by adding 10 µL of diluted test solution and COX Assay Buffer, respectively, into assigned wells.

[5] = test system: HaCaT cell line; test: Cell viability (cytotoxicity) in healthy cells, MTT assay; format: cell-based, human; conditions: Homo sapiens, HaCaT; MTT, 72 h, healthy keratinocytes; read-out: IC50 in 2D cultured HaCaT cell line
Description: HaCaT human healthy keratinocyte cells (CRL-2404™) (ATCC, Manassas, VA, USA) were cultured in DMEM (10% FBS, v/v) (Gibco, Billings, MT, USA), respectively and supplemented with 1% antibiotics (10.000 μg/mL streptomycin and 10.000 units/mL penicillin) (Gibco, Billings, MT, USA) at 37 °C in a humidified atmosphere of 5% CO2. For the preliminary assessment of the cytotoxicity of selected potent compounds in healthy cells, HaCaT cells were seeded 2 × 10^5 cells/mL in 96-well plate and incubated for 24 h. The following day the 7a, 7d, and 7f compounds were applied similarly as in the MIA PaCa-2 cytotoxicity protocol between concentrations 0.62–100 µM for 72 h and then MTT was applied.

Compound	melting point [°C]	IC50 [1] [µM]	IC50 [2] [µM]	5-LOX Percent of İnhibition [2] [%]	Spheroid Diameter Day 0 ([3]; 0.1 µM group)	Spheroid Diameter Day 9 ([3]; 0.1 µM)	Spheroid Diameter Day 0 ([3]; 1 µM group)	Spheroid Diameter Day 9 ([3]; 1 µM)	Spheroid Diameter Day 0 ([3]; 10 µM group)	Spheroid Diameter Day 9 ([3]; 10 µM)	Spheroid Diameter Day 0 ([3]; 100 µM group)	Spheroid Diameter Day 9 ([3]; 100 µM)	COX-2 Percent of İnhibition [4] [%]	Spheroid state at the end of the 9 days ([3]; 10–100 µM)	Spheroid state at the end of the 9 days ([3]; 100 µM)	Reduction in spheroid size ([3]; 10 µM, after 9 days of treatment) [%]	IC50 [5] [µM]
O=C(N/N=C/c1cccc(O)c1)c1cc(-c2ccccc2)c(-c2ccccc2)s1 [7b, N’-[(E)-(3-hydroxyphenyl)methylidene]-4,5-diphenylthiophene-2-carbohydrazide]	225	9.09 ± 1.11	93.2 ± 9.89	25.77 ± 2.54	1193.0 ± 13.1	5922.5 ± 39.8	1185.5 ± 82.7	6461.5 ± 59.6	969.3 ± 28.9	4192.0 ± 44.8	644.7 ± 26.9	1050.5 ± 18.9	24.13 ± 1.55				
COc1ccc(/C=N/NC(=O)c2cc(-c3ccccc3)c(-c3ccccc3)s2)cc1OC [7g, N’-[(E)-(3,4-dimethoxyphenyl)methylidene]-4,5-diphenylthiophene-2-carbohydrazide]	253	24.2 ± 3.76		20.38 ± 1.98	1222.5 ± 28.73	5969.0 ± 59.6	985.5 ± 65.7	3318.0 ± 35.4					11.41 ± 3.40	disintegrated			
COc1ccc(/C=N/NC(=O)c2cc(-c3ccccc3)c(-c3ccccc3)s2)c(OC)c1OC [7h, N’-[(E)-(2,3,4-trimethoxyphenyl)methylidene]-4,5-diphenylthiophene-2-carbohydrazide]	245	> 100		19.87 ± 1.62	1125.5 ± 28.9	5215 ± 18.3	1220.5 ± 31.5	6682.5 ± 7.1	1192.0 ± 24.7	8165.5 ±18.1	942.0 ± 58.9	7936.5 ± 48.6	8.35 ± 0.93				
COc1cc(/C=N/NC(=O)c2cc(-c3ccccc3)c(-c3ccccc3)s2)cc(OC)c1OC [7i, N’-[(E)-(3,4,5-trimethoxyphenyl)methylidene]-4,5-diphenylthiophene-2-carbohydrazide]	254	> 100		27.23 ± 0.64	1135.5 ± 2.5	5523.0 ± 15.2	943.0 ± 12.1	3539.0 ± 25.4		2764.0 ± 37.9	1023.0 ± 59.5	2776.5 ± 85.2	13.27 ± 0.73				
O=C(N/N=C/c1ccc2c(c1)OCO2)c1cc(-c2ccccc2)c(-c2ccccc2)s1 [7j, N’-[(E)-(2H-1,3-benzodioxol-5-yl)methylidene]-4,5-diphenylthiophene-2-carbohydrazide]	262	9.65 ± 0.22		36.10 ± 3.92	1112.0 ± 35.4	6291.5 ± 45.87	998.0 ± 11.5	5934.0 ± 96.3	1068.0 ± 68.1	5217.4 ± 25.7			16.64 ± 1.11		disintegrated		
COc1cccc2c1C(=O)c1c(O)c3c(c(O)c1C2=O)C[C@@](O)(C(=O)CO)C[C@@H]3O[C@H]1C[C@H](N)[C@H](O)[C@H](C)O1 [DOX, Doxorubicin hydrochloride, reference compound]		0.35 ± 0.18														24	0.11 ± 0.08
CC(c1cc2ccccc2s1)N(O)C(N)=O (stereo not drawn) [Zileuton, reference compound]				64.85 ± 0.39													
